Measured values taken from ChEMBL document CHEMBL1250451, “Mechanistic insights into a Ca2+-dependent family of alpha-mannosidases in a human gut symbiont” (Nat Chem Biol, 2010).

How the values were obtained:
Format in all cases: protein assay
[1] = target: T1, Alpha-1,2-mannosidase (BT_2199) (Bacteroides thetaiotaomicron) (UniProt Q8A5N9); assay: Activity of Bacteroides thetaiotaomicron GH92 alpha-mannosidase 2199 assessed as recovery of enzyme activity at 1 mM relative to enzyme activity in presence of calcium
T1 sequence (whole entry): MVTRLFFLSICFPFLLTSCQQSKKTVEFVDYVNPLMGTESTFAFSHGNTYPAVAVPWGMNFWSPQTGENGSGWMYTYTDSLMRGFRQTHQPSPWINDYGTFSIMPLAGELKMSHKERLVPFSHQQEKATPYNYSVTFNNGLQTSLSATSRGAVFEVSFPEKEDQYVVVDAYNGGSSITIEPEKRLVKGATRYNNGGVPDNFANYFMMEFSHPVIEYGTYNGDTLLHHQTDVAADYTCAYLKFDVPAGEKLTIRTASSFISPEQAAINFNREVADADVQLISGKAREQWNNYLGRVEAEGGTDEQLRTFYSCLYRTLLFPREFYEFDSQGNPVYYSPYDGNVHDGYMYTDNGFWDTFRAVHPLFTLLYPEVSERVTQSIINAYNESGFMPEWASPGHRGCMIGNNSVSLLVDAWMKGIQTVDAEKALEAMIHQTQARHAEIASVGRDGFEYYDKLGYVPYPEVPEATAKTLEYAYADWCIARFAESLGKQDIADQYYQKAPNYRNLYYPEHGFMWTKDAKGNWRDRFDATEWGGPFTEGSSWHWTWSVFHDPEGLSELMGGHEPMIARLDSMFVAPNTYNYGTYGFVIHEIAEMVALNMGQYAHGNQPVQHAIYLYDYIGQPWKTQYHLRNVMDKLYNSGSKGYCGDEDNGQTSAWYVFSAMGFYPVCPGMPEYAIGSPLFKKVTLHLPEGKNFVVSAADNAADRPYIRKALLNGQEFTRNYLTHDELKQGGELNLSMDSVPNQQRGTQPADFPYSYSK

[2] = target: T2, Alpha-1,2-mannosidase (BT_3990) (Bacteroides thetaiotaomicron) (UniProt Q8A0N1); assay: Activity of Bacteroides thetaiotaomicron GH92 alpha-mannosidase 3990 assessed as recovery of enzyme activity at 1 mM relative to enzyme activity in presence of calcium
T2 sequence (whole entry): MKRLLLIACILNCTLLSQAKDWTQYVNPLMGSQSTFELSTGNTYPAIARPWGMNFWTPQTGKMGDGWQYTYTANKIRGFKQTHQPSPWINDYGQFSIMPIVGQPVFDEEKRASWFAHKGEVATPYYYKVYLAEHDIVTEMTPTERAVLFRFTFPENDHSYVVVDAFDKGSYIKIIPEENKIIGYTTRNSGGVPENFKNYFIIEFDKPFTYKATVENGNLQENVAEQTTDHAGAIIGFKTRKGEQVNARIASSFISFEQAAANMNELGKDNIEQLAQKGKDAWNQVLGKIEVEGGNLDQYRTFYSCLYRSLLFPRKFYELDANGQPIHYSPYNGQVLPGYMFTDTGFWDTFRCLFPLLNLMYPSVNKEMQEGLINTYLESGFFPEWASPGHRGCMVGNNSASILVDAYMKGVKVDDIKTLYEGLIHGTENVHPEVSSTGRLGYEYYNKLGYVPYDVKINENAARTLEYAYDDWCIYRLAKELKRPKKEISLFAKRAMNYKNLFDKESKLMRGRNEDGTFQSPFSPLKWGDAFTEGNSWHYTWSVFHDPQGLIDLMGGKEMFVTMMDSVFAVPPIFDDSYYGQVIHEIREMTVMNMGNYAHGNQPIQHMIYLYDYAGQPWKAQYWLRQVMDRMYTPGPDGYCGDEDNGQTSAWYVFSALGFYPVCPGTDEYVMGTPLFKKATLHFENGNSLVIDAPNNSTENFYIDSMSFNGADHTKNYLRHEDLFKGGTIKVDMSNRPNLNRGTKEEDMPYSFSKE

[3] = target: T2, Alpha-1,2-mannosidase (BT_3990) (Bacteroides thetaiotaomicron); assay: Activity of Bacteroides thetaiotaomicron GH92 alpha-mannosidase 3990 assessed as recovery of enzyme activity at 1 mM in presence of 7 mM Mn(2+) ions and in presence of 5 mM EGTA in 100 mM pH 7 MOPS buffer relative to enzyme activity in presence of calcium
[4] = target: T2, Alpha-1,2-mannosidase (BT_3990) (Bacteroides thetaiotaomicron); assay: Activity of Bacteroides thetaiotaomicron GH92 alpha-mannosidase 3990 assessed as recovery of enzyme activity at 1 mM in presence of 7 mM Ba(2+) ions and in presence of 5 mM EDTA in 100 mM pH 7 MOPS buffer relative to enzyme activity in presence of calcium
[5] = target: T1, Alpha-1,2-mannosidase (BT_2199) (Bacteroides thetaiotaomicron); assay: Activity of Bacteroides thetaiotaomicron GH92 alpha-mannosidase 2199 assessed as recovery of enzyme activity at 1 mM in presence of 7 mM Sr(2+) ions and in presence of 5 mM EGTA in 100 mM pH 7 MOPS buffer relative to enzyme activity in presence of calcium
[6] = target: T1, Alpha-1,2-mannosidase (BT_2199) (Bacteroides thetaiotaomicron); assay: Activity of Bacteroides thetaiotaomicron GH92 alpha-mannosidase 2199 assessed as recovery of enzyme activity at 1 mM in presence of 7 mM Mg(2+) ions and in presence of 5 mM EDTA in 100 mM pH 7 MOPS buffer relative to enzyme activity in presence of calcium
[7] = target: T1, Alpha-1,2-mannosidase (BT_2199) (Bacteroides thetaiotaomicron); assay: Activity of Bacteroides thetaiotaomicron GH92 alpha-mannosidase 2199 assessed as recovery of enzyme activity at 1 mM in presence of 7 mM Ti(3+) ions and in presence of 5 mM EGTA in 100 mM pH 7 MOPS buffer relative to enzyme activity in presence of calcium
[8] = target: T1, Alpha-1,2-mannosidase (BT_2199) (Bacteroides thetaiotaomicron); assay: Activity of Bacteroides thetaiotaomicron GH92 alpha-mannosidase 2199 assessed as recovery of enzyme activity at 1 mM in presence of 7 mM V(3+) ions and in presence of 5 mM EGTA in 100 mM pH 7 MOPS buffer relative to enzyme activity in presence of calcium
[9] = target: T1, Alpha-1,2-mannosidase (BT_2199) (Bacteroides thetaiotaomicron); assay: Activity of Bacteroides thetaiotaomicron GH92 alpha-mannosidase 2199 assessed as recovery of enzyme activity at 1 mM in presence of 7 mM Sr(2+) ions and in presence of 5 mM EDTA in 100 mM pH 7 MOPS buffer relative to enzyme activity in presence of calcium
[10] = target: T2, Alpha-1,2-mannosidase (BT_3990) (Bacteroides thetaiotaomicron); assay: Activity of Bacteroides thetaiotaomicron GH92 alpha-mannosidase 3990 assessed as recovery of enzyme activity at 1 mM in presence of 7 mM Sr(2+) ions and in presence of 5 mM EDTA in 100 mM pH 7 MOPS buffer relative to enzyme activity in presence of calcium
[11] = target: T2, Alpha-1,2-mannosidase (BT_3990) (Bacteroides thetaiotaomicron); assay: Activity of Bacteroides thetaiotaomicron GH92 alpha-mannosidase 3990 assessed as recovery of enzyme activity at 1 mM in absence of metal and in presence of 5 mM EGTA in 100 mM pH 7 MOPS buffer relative to enzyme activity in presence of calcium
[12] = target: T1, Alpha-1,2-mannosidase (BT_2199) (Bacteroides thetaiotaomicron); assay: Activity of Bacteroides thetaiotaomicron GH92 alpha-mannosidase 2199 assessed as recovery of enzyme activity at 1 mM in presence of 7 mM Co(2+) ions and in presence of 5 mM EDTA in 100 mM pH 7 MOPS buffer relative to enzyme activity in presence of calcium

Row | SMILES | Activity [1] | Activity [2] | Activity [3] | Activity [4] | Activity [5] | Activity [6] | Activity [7] | Activity [8] | Activity [9] | Activity [10] | Activity [11] | Activity [12]
1 | OC[C@H]1O[C@H](OC[C@H]2O[C@H](O)[C@@H](O)[C@@H](O)[C@@H]2O)[C@@H](O)[C@@H](O)[C@@H]1O | 63% | 65% |  |  |  |  |  |  |  |  |  | 
2 | O=[N+]([O-])c1ccc(O[C@H]2O[C@H](CO)[C@@H](O)[C@H](O)[C@@H]2O)cc1 |  |  | 6% | 0% | 30% | 0% | 0% | 0% | 31% | 14% | 0% | 7%
